Experimental data: patent US5922740A, “Heterocyclylcarbonyl substituted benzofuranyl-ureas” (Bayer Aktiengesellschaft, priority 1995, dated 1999)

How the values were obtained:
B6D2F1 mice = assay: Endotoxin induced shock lethality in mice; format: in vivo; conditions: galactosamine-sensitized mice, LPS 0.01 μg/mouse; compound intravenously 1 hour prior LPS, doses of 3 to 30 mg/kg
Procedure: 9. Endotoxin Induced Shock Lethality in Mice
B6D2F1 mice (n=10) were sensitized with galactosamine (600 mg/kg), and shock and lethality were triggered by LPS (0.01 μg/mouse). The compounds were administered intravenously 1 hour prior LPS. Controls were LPS challenged mice without compound. Mice were dying 8 to 24 hours post LPS challenge. Example 2, 13 and 16 reduced the endotoxin medicated mortality about 70% to 100% at doses of 3 to 30 mg/kg.

human monocytes = assay: Endotoxin induced TNF release; format: cell-based; conditions: LPS 2 μg ml^-1, 18 to 24 hours, ELISA
Procedure: 7. Preparation of Human Monocytes
Blood was taken from normal donors. Monocytes were isolated from peripheral blood by density centrifugation, followed by centrifugal elutriation.
8. Endotoxin Induced TNF Release
Monocytes (1×10^6 ml^-1) were stimulated with LPS (2 μg ml^-1) and coincubated with the compounds at different concentrations (10^-4 to 10 μg ml^-1) Compounds were dissolved in DMSO/medium (2% v/v). The cells were incubated in RPMI-1640 medium glutamine/FCS supplemented and at 37° C. in a humidified atmosphere with 5% CO2. After 18 to 24 hours TNF was determined in the supernatants by an human TNF specific ELISA (medgenix). Controls were nonstimulated and LPS stimulated monocytes without compounds. Example 2, 13 and 16 induce inhibition of LPS driven TNF activity in human monocytes (IC50 : 10^-3 to 1 μg ml^-1).

SMILES	reduction of endotoxin mediated mortality (B6D2F1 mice)	IC50, inhibition of LPS driven TNF activity (human monocytes)
COc1ccc2c(NC(N)=O)c(C(=O)c3ccncc3)oc2c1 [Example 2]	70% to 100	10^-3 to 1 μg ml^-1
CC[n+]1ccc(C(=O)c2oc3cc(OC)ccc3c2NC(N)=O)cc1 [Example 13]	70% to 100	10^-3 to 1 μg ml^-1
Cc1ccc2c(NC(N)=O)c(C(=O)c3cccnc3)oc2c1 [Example 16]	70% to 100	10^-3 to 1 μg ml^-1
